Test results taken from US9738655B2, “Tetrahydroisoquinolines containing substituted azoles as factor XIa inhibitors” (BRISTOL-MYERS SQUIBB COMPANY, priority 2013, dated 2017).
Counter-ions that a name gives are not always drawn. Like-named read-outs stand apart in the source and are kept apart here.

Target: purified human Factor XIa (Homo sapiens (Human), UniProt P03951)
Experiment: Factor XIa enzyme inhibition assay (chromogenic substrate S-2366)
Conditions: read-out: Factor XIa Ki, measured at 25° C.

Sequence of purified human Factor XIa (P03951 388-625): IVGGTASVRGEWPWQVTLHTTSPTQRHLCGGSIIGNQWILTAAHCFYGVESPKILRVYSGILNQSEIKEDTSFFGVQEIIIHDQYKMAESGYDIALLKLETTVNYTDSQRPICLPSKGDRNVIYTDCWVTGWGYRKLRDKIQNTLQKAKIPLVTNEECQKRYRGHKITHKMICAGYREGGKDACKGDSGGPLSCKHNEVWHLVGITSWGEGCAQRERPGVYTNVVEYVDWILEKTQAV
Sequence of purified human Factor XIa (P03951 19-387 partner): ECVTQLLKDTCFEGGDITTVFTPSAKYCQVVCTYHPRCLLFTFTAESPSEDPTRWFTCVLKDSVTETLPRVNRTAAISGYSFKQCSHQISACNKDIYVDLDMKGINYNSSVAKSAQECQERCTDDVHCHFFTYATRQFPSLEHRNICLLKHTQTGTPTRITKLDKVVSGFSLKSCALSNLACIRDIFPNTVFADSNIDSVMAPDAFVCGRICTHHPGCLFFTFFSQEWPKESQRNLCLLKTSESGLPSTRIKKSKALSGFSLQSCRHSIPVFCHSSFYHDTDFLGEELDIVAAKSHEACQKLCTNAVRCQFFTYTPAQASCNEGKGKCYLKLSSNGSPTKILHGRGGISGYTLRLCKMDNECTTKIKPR

| Ki [nM] | Ki (TFA salt) [nM] | SMILES |
| --- | --- | --- |
| < 5 |  | O=C(O)c1ccc(NC(=O)[C@H]2c3cccc(N4CCN(C5COC5)CC4)c3CCN2C(=O)[C@H]2CC(c3cccc(Cl)c3F)=NO2)cc1 [Example 228, 4-((R)-2-((R)-3-(3-Chloro-2-fluorophenyl)-4,5-dihydroisoxazole-5-carbonyl)-5-(4-(oxetan-3-yl)piperazin-1-yl)-1,2,3,4-tetrahydroisoquinoline-1-carboxamido)benzoic acid, 2 TFA salt] |
| < 5 |  | O=C(O)c1ccc(NC(=O)[C@@H]2c3cccc(N4CCC(O)CC4)c3CCN2C(=O)c2cn(-c3cccc(Cl)c3F)nn2)cc1 [Example 86, (S)-4-(2-(1-(3-chloro-2-fluorophenyl)-1H-1,2,3-triazole-4-carbonyl)-5-(4-hydroxypiperidin-1-yl)-1,2,3,4-tetrahydroisoquinoline-1-carboxamido)benzoic acid, TFA salt] |
| < 5 |  | O=C(O)c1ccc(NC(=O)[C@@H]2c3cccc(N4CCOCC4=O)c3CCN2C(=O)[C@H]2CC(c3cccc(Cl)c3F)=NO2)cc1 [Example 289, 4-((S)-2-((R)-3-(3-chloro-2-fluorophenyl)-4,5-dihydroisoxazole-5-carbonyl)-5-(3-oxomorpholino)-1,2,3,4-tetrahydroisoquinoline-1-carboxamido)benzoic acid,] |
|  | 127 | COC1CCN(c2cccc3c2CCN(C(=O)C2CCN(c4cccc(Cl)c4)C2)C3C(=O)Nc2ccc(C(=O)O)cc2)CC1 (stereo not drawn) [Example 258, 4-(2-(1-(3-chlorophenyl)pyrrolidine-3-carbonyl)-5-(4-methoxypiperidin-1-yl)-1,2,3,4-tetrahydroisoquinoline-1-carboxamido)benzoic acid, TFA salt] |
| 5580 |  | O=C(O)c1ccc(NC(=O)[C@H]2c3ccccc3CCN2C(=O)c2cn(-c3cccc(Cl)c3F)nn2)cc1 [Example 2, (R)-4-(2-(1-(3-Chloro-2-fluorophenyl)-1H-1,2,3-triazole-4-carbonyl)-1,2,3,4-tetrahydroisoquinoline-1-carboxamido)benzoic acid] |
|  | 948 | COC1CCN(c2cccc3c2CCN(C(=O)C2CCN(c4cccc(Cl)c4)C2)C3C(=O)Nc2ccc(C(=O)O)cc2)CC1 (stereo not drawn) [Example 261, 4-(2-(1-(3-chlorophenyl)pyrrolidine-3-carbonyl)-5-(4-methoxypiperidin-1-yl)-1,2,3,4-tetrahydroisoquinoline-1-carboxamido)benzoic acid, TFA salt] |
| < 5 |  | O=C(O)c1ccc(NC(=O)C2c3cccc(-c4ccc(S(=O)(=O)NC5CC5)cc4)c3CCN2C(=O)c2cn(-c3cccc(Cl)c3F)nn2)cc1 (stereo not drawn) [Example 176, 4-(2-(1-(3-chloro-2-fluorophenyl)-1H-1,2,3-triazole-4-carbonyl)-5-(4-(N-cyclopropylsulfamoyl)phenyl)-1,2,3,4-tetrahydroisoquinoline-1-carboxamido)benzoic acid] |
| < 5 |  | O=C(O)c1ccc(NC(=O)C2c3cccc(N4CCC(N5CCCC5)CC4)c3CCN2C(=O)c2cn(-c3cccc(Cl)c3F)nn2)cc1 (stereo not drawn) [Example 210, 4-(2-(1-(3-chloro-2-fluorophenyl)-1H-1,2,3-triazole-4-carbonyl)-5-(4-(pyrrolidin-1-yl)piperidin-1-yl)-1,2,3,4-tetrahydroisoquinoline-1-carboxamido)benzoic acid, 2 TFA salt] |
| < 5 |  | O=C(O)c1ccc(NC(=O)C2c3cccc(-c4ccc5nccnc5c4)c3CCN2C(=O)c2cn(-c3cccc(Cl)c3F)nn2)cc1 (stereo not drawn) [Example 174, 4-(2-(1-(3-chloro-2-fluorophenyl)-1H-1,2,3-triazole-4-carbonyl)-5-(quinoxalin-6-yl)-1,2,3,4-tetrahydroisoquinoline-1-carboxamido)benzoic acid] |
| < 5 |  | CNC(=O)c1ccc(-c2cccc3c2CCN(C(=O)c2cnn(-c4cccc(Cl)c4F)c2N)C3C(=O)Nc2ccc(C(=O)O)cc2)cn1 (stereo not drawn) [Example 47, 4-(2-(5-Amino-1-(3-chloro-2-fluorophenyl)-1H-pyrazole-4-carbonyl)-5-(6-(methylcarbamoyl)pyridin-3-yl)-1,2,3,4-tetrahydroisoquinoline-1-carboxamido)benzoic acid, TFA salt] |
| < 5 |  | N#Cc1ccc(-c2cccc3c2CCN(C(=O)c2cn(-c4cccc(Cl)c4F)nn2)C3C(=O)Nc2ccc(C(=O)O)cc2)cn1 (stereo not drawn) [Example 182, 4-(2-(1-(3-chloro-2-fluorophenyl)-1H-1,2,3-triazole-4-carbonyl)-5-(6-cyanopyridin-3-yl)-1,2,3,4-tetrahydroisoquinoline-1-carboxamido)benzoic acid, TFA salt] |
| 6.04 |  | O=C(O)c1ccc(NC(=O)C2c3cccc(NCCO)c3CCN2C(=O)c2cn(-c3cccc(Cl)c3F)nn2)cc1 (stereo not drawn) [Example 111, 4-(2-(1-(3-Chloro-2-fluorophenyl)-1H-1,2,3-triazole-4-carbonyl)-5-((2-hydroxyethyl)amino)-1,2,3,4-tetrahydroisoquinoline-1-carboxamido)benzoic acid, TFA salt] |
| < 5 |  | Nc1c(C(=O)N2CCc3c(-c4cncnc4)cccc3C2C(=O)Nc2ccc(C(=O)O)cc2)cnn1-c1cccc(Cl)c1F (stereo not drawn) [Example 46, 4-(2-(5-Amino-1-(3-chloro-2-fluorophenyl)-1H-pyrazole-4-carbonyl)-5-(pyrimidin-5-yl)-1,2,3,4-tetrahydroisoquinoline-1-carboxamido)benzoic acid, TFA salt] |
| < 5 |  | CN(C)S(=O)(=O)c1cccc(-c2cccc3c2CCN(C(=O)c2cn(-c4cccc(Cl)c4F)nn2)C3C(=O)Nc2ccc(C(=O)O)cc2)c1 (stereo not drawn) [Example 177, 4-(2-(1-(3-chloro-2-fluorophenyl)-1H-1,2,3-triazole-4-carbonyl)-5-(3-(N,N-dimethylsulfamoyl)phenyl)-1,2,3,4-tetrahydroisoquinoline-1-carboxamido)benzoic acid] |
| < 5 |  | O=C(O)c1ccc(NC(=O)C2c3cccc(N4CCC(O)CC4)c3CCN2C(=O)c2cn(-c3cccc(Cl)c3F)nn2)cc1 (stereo not drawn) [Example 85, 4-(2-(1-(3-chloro-2-fluorophenyl)-1H-1,2,3-triazole-4-carbonyl)-5-(4-hydroxypiperidin-1-yl)-1,2,3,4-tetrahydroisoquinoline-1-carboxamido)benzoic acid, TFA salt] |
| < 5 |  | O=C(O)c1ccc(NC(=O)C2c3cccc(-c4ccc5occc(=O)c5c4)c3CCN2C(=O)c2cn(-c3cccc(Cl)c3F)nn2)cc1 (stereo not drawn) [Example 175, 4-(2-(1-(3-chloro-2-fluorophenyl)-1H-1,2,3-triazole-4-carbonyl)-5-(4-oxo-4H-chromen-6-yl)-1,2,3,4-tetrahydroisoquinoline-1-carboxamido)benzoic acid] |
| 9.17 |  | O=C(O)c1ccc(NC(=O)C2c3cccc(-c4cccc(-c5ccn[nH]5)c4)c3CCN2C(=O)c2cn(-c3cccc(Cl)c3F)nn2)cc1 (stereo not drawn) [Example 164, 4-(5-(3-(1H-pyrazol-5-yl)phenyl)-2-(1-(3-chloro-2-fluorophenyl)-1H-1,2,3-triazole-4-carbonyl)-1,2,3,4-tetrahydroisoquinoline-1-carboxamido)benzoic acid] |

| SMILES | Ki [nM] | Ki (TFA salt) [nM] |
| --- | --- | --- |
| O=C(O)c1ccc(NC(=O)C2c3cccc(-c4ccc5c(c4)CCNC5)c3CCN2C(=O)c2cn(-c3cccc(Cl)c3F)nn2)cc1 (stereo not drawn) [Example 40, 4-(2-(1-(3-chloro-2-fluorophenyl)-1H-1,2,3-triazole-4-carbonyl)-1,1′,2,2′,3,3′,4,4′-octahydro-[5,6′-biisoquinoline]-1-carboxamido)benzoic acid, TFA salt] | < 5 |  |
